Source: paper PMC12000094, “Development of a highly sensitive luciferase assay for intracellular evaluation of coronavirus Mpro activity” (Frontiers in Microbiology, 2025)
Read-outs that look alike come from different tables or passages of the source. Square brackets hold non-standard residues; d marks the D form. Peptide text beside a SMILES is read from it. Nle = CCCC[C@H](N)C(=O)O

Experiments:
HCoV-229E [1] = experiment: microbe, parasite or virus in culture; type: cell-based, HCoV-229E (Huh-7 cells); settings: for antiviral potency against HCoV 229E in words: ICMP assay, Huh-7 cells; for IC50: read-out: IC50 (inhibition of luciferase expression, HCoV-229E infection)
HCoV-229E [2] = experiment: RT-qPCR of viral RNA and Mpro gene in HCoV-229E-infected, drug-treated Huh-7 cells; type: cell-based, HCoV-229E (Huh-7 cells); settings: infected Huh-7 cells, 48 h post-infection
229E coronavirus = test system: 229E coronavirus; set-up: method as in Boras et al., 2021; settings: cell-based assay; ref Boras et al., 2021; read-out: IC50 (anti-229E coronavirus activity, previous study); cited from earlier work
[3] = Human coronavirus 229E, Huh-7, 48 h

Row | SMILES | antiviral potency against HCoV 229E in words (HCoV-229E [1]) | IC50 (HCoV-229E [1]) [nM] | IC50 (HCoV-229E [1]; [3]) [nM] | further results
1 | O=c1cc(-c2ccc(O)c(O)c2)oc2cc(O[C@@H]3O[C@H](CO)[C@@H](O)[C@H](O)[C@H]3O)cc(O)c12 [Cynaroside, luteolin 7-O-β-D-glucoside] | moderate inhibitory effects | 21600 | – | antiviral potency against HCoV 229E in words (HCoV-229E [1]; listed as cynaroside): moderate antiviral activity
2 | CC(C)(C)NC(=O)N[C@H](C(=O)N1C[C@H]2[C@@H]([C@H]1C(=O)NC(CC1CCC1)C(=O)C(N)=O)C2(C)C)C(C)(C)C (stereo partly drawn) [Boceprevir] | very weak inhibitory potency | – | > 50000 | –
3 | CCCC[C@@H](C=O)NC(=O)[C@H](CC(C)C)NC(=O)[C@H](CC(C)C)NC(C)=O [MG-101] (Ac-Leu-Leu-[Nle]-aldehyde) | moderate cellular inhibition | 2800 | – | –
4 | CC(C)C[C@H](NC(=O)OCc1ccccc1)C(=O)N[C@@H](C[C@@H]1CCNC1=O)C(O)S(=O)(=O)[O-].[Na+] (stereo partly drawn) [GC376] | effectively suppresses the replication | – | – | –
5 | CC(C)C[C@H](NC(=O)OCc1ccccc1)C(=O)N[C@@H](CC1CCNC1=O)C(O)S(=O)(=O)O (stereo partly drawn) [GC376] | – | 345 | – | –
6 | CC(C)(C)c1ccc(N(C(=O)c2cnc[nH]2)[C@@H](C(=O)NC2CCCCC2)c2cccnc2)cc1 [X77] | – | 457 | – | –
7 | CC(C)(C)[C@H](NC(=O)C(F)(F)F)C(=O)N1C[C@H]2[C@@H]([C@H]1C(=O)N[C@H](C#N)C[C@@H]1CCNC1=O)C2(C)C [Nirmatrelvir] | – | – | 233 | –
8 | COc1cccc2[nH]c(C(=O)N[C@@H](CC(C)C)C(=O)N[C@@H](C[C@@H]3CCNC3=O)C(=O)COP(=O)(O)O)cc12 [Lufotrelvir] | – | – | 65 | intracellular 229E Mpro expression (RT-qPCR, normalized to GAPDH) versus drug concentration (HCoV-229E [2]; increasing drug concentration): decreased significantly; HCoV 229E viral RNA levels (RT-qPCR, normalized to GAPDH) versus drug concentration (HCoV-229E [2]; increasing drug concentrations): negative correlation; IC50 (229E coronavirus): 58 nM
